Results reported in the supplement of paper PMC5908809.

Legend:
Experiment in all cases: relative IC50 (inflection point of fitted viability curve, relative to fitted max inhibition); higher = less sensitive
Details in all cases: 72 h
NK-YS (IL-2 2.5 ng/mL) = test system: NK-YS (IL-2 2.5 ng/mL)
Procedure: (§1)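 Drug sensitivity and resistance testing: 5 concentrations over a 10,000-fold range, 72 h at 37 °C, viability by CellTiter-Glo normalised to DMSO and benzethonium chloride controls. IC50 is the inflection point of a logistic fit (min fixed at 0, max fitted), so it is relative to the fitted maximal inhibition. Kept only where fitted max inhibition is at least 50%.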

KHYG-1 (IL-2 2.5 ng/mL) = test system: KHYG-1 (IL-2 2.5 ng/mL)
Procedure: as §1

SNK-6 (IL-2 2.5 ng/mL) = test system: SNK-6 (IL-2 2.5 ng/mL)
Procedure: as §1

[1] = test system: normal primary NK cells, pool 1 (3 donors), resting (IL-2 0 ng/mL)
Procedure: as §1

KAI3 (IL-2 2.5 ng/mL) = test system: KAI3 (IL-2 2.5 ng/mL)
Procedure: as §1

[2] = test system: normal primary NK cells, pool 2 (3 donors) (IL-2 2.5 ng/mL)
Procedure: as §1

[3] = test system: normal primary NK cells, pool 3 (3 donors) (IL-2 2.5 ng/mL)
Procedure: as §1

DERL-7 (IL-2 2.5 ng/mL) = test system: DERL-7 (IL-2 2.5 ng/mL)
Procedure: as §1

[4] = test system: normal primary NK cells, pool 1 (3 donors) (IL-2 2.5 ng/mL)
Procedure: as §1

NKL (IL-2 2.5 ng/mL) = test system: NKL (IL-2 2.5 ng/mL)
Procedure: as §1

IMC-1 (IL-2 20 ng/mL) = test system: IMC-1 (IL-2 20 ng/mL)
Procedure: as §1

NK-92 (IL-2 2.5 ng/mL) = test system: NK-92 (IL-2 2.5 ng/mL)
Procedure: as §1

YT (IL-2 2.5 ng/mL) = test system: YT (IL-2 2.5 ng/mL)
Procedure: as §1

Compound	relative IC50 (NK-YS (IL-2 2.5 ng/mL)) [nM]	relative IC50 (KHYG-1 (IL-2 2.5 ng/mL)) [nM]	relative IC50 (SNK-6 (IL-2 2.5 ng/mL)) [nM]	relative IC50 [1] [nM]	relative IC50 (KAI3 (IL-2 2.5 ng/mL)) [nM]	relative IC50 [2] [nM]	relative IC50 [3] [nM]	relative IC50 (DERL-7 (IL-2 2.5 ng/mL)) [nM]	relative IC50 [4] [nM]	relative IC50 (NKL (IL-2 2.5 ng/mL)) [nM]	relative IC50 (IMC-1 (IL-2 20 ng/mL)) [nM]	relative IC50 (NK-92 (IL-2 2.5 ng/mL)) [nM]	relative IC50 (YT (IL-2 2.5 ng/mL)) [nM]
CN(C)c1cc2c(cc1Sc1nc3c(N)nccc3n1CCNCC(C)(C)C)OCO2 [CUDC-305]	158	243	328	199	114	208	308	164	232	293	301	204	302
COc1cc(O)c2c(c1)/C=C/C[C@H](O)[C@H](O)C(=O)/C=C\C[C@H](C)OC2=O [(5Z)-7-Oxozeaenol]	1140	480	1560	688	797	1600	2050	572	782	156		1510	1060
COc1ccc(C[C@H](NC(=O)[C@H](C)NC(=O)CN2CCOCC2)C(=O)N[C@@H](Cc2ccccc2)C(=O)C2(C)CO2)cc1 (stereo in doubt) [ONX-0914]	38.1	142	62.6	20.1	18.1	27.4	61.8	18.7	30.6	29	158	24.4	64.7
Nc1ncnc2c1nc(N)n2[C@@H]1O[C@H](CO)[C@@H](O)[C@H]1O [8-amino-adenosine]	757	836	68.1	13100	320	5810	6780	489	6680	360	1080	431	862
CCn1c(-c2nonc2N)nc2cnc(Oc3cccc(NC(=O)c4ccc(OCCN5CCOCC5)cc4)c3)cc21		1120	50.4	1660	1280	1970	1610	63.4	1540	1070		287	
C[C@@H]1C[C@H]2O[C@@H]2/C=C\C=C\C(=O)Cc2c(Cl)c(O)cc(O)c2C(=O)O1 [Radicicol]	198	209	81.8	520	72.1	75.2	132	37.3	126	134	310	130	423
CC(=O)c1c(C)c2cnc(Nc3ccc(N4CCNCC4)cn3)nc2n(C2CCCC2)c1=O [Palbociclib]	413	279		4040	3090	2850	3430	1380	3580	1550	2620	1780	
C[C@H]1C[C@@H]2[C@H]([C@@H](O)C[C@@]3(C)[C@H]2CC[C@]3(O)C(=O)CO)[C@@]2(C)C=CC(=O)C=C12 [Methylprednisolone]		197		9.66		41.7	88.8	22.1	33.4	13.3	> 10000		164
COC(=O)c1ccc2c(c1)NC(=O)/C2=C(\Nc1ccc(N(C)C(=O)CN2CCN(C)CC2)cc1)c1ccccc1 [Nintedanib]	1700	1720	4280	1010	1850	1580	2730	1210	1200	902	3980	1070	2580
C[C@@H]1C=C2C(=O)O[C@@H]3CC[C@H](C1)[C@]23O [Galiellalactone]	3660	5240	3970	3720	3340	5560	7360	3110	4800			5040	8550
O=c1cc(N2CCOCC2)oc2c(-c3ccccc3)cccc12	9060	13600	4830	6670	11500	11700	16800	5890	13400	5080	35200	12300	8330
O=C(/C=C\n1cnc(-c2cc(C(F)(F)F)cc(C(F)(F)F)c2)n1)NNc1cnccn1 [Selinexor]	166	152	48.3	24.2	93.3	52.4	80.8	65.1	76.7	106	497	168	64.1
CN(c1ccccc1CNc1nc(Nc2ccc3c(c2)CC(=O)N3)ncc1C(F)(F)F)S(C)(=O)=O	1030	553	1600	4290	1380	1720	1950	609	1130	715	1130	1710	1470
COc1cccc2c1C(=O)c1c(O)c3c(c(O)c1C2=O)C[C@@](O)(C(C)=O)C[C@@H]3O[C@H]1C[C@H](N)[C@H](O)[C@H](C)O1 [Daunorubicin]	31.1	38.2	34.7	15.7	54.5	20.8	42	21.7	21.6	3.74	19.2	45.7	40.8
Nc1ncnc2c1nc(Cl)n2[C@@H]1O[C@H](CO)[C@@H](O)[C@H]1O [8-chloro-adenosine]	1440	2820	330	5340	579	6010	7030	641	5980	4720	19300	2610	1870
COc1cc([C@@H]2c3cc4c(cc3[C@@H](O[C@@H]3O[C@@H]5CO[C@@H](c6cccs6)O[C@H]5[C@H](O)[C@H]3O)[C@H]3COC(=O)[C@H]23)OCO4)cc(OC)c1O [Teniposide]	13.3	27.8	32	139	18.8	965	1250	15.5	534	10	20.3	84.1	122
CCOC(=O)CCNc1cc(N2CCc3ccccc3CC2)nc(-c2ccccn2)n1 [GSK-J4]	3320	1740	3020	1280	3340	3280	2110	2480	2100	3370	1230	837	2670

Compound	relative IC50 (NK-YS (IL-2 2.5 ng/mL)) [nM]	relative IC50 (KHYG-1 (IL-2 2.5 ng/mL)) [nM]	relative IC50 (SNK-6 (IL-2 2.5 ng/mL)) [nM]	relative IC50 [1] [nM]	relative IC50 (KAI3 (IL-2 2.5 ng/mL)) [nM]	relative IC50 [2] [nM]	relative IC50 [3] [nM]	relative IC50 (DERL-7 (IL-2 2.5 ng/mL)) [nM]	relative IC50 [4] [nM]	relative IC50 (NKL (IL-2 2.5 ng/mL)) [nM]	relative IC50 (IMC-1 (IL-2 20 ng/mL)) [nM]	relative IC50 (NK-92 (IL-2 2.5 ng/mL)) [nM]	relative IC50 (YT (IL-2 2.5 ng/mL)) [nM]
Cc1cc(Nc2cc(CN3CCOCC3)c3nc(C)c(Cc4ccc(Cl)cc4F)n3n2)n[nH]1 [Gandotinib]	260	107	230		89.6	183	669	163	362	75	1260	236	448
CN1CC[C@H](c2c(O)cc(O)c3c(=O)cc(-c4ccccc4Cl)oc23)[C@H](O)C1 [Alvocidib]	142	136	8.41	370	55.3	150	164	174	182	126	410	117	133
CC(=O)NCC(=O)N1[C@@H]2CC[C@H]1c1ccc(Nc3ncc(C(F)(F)F)c(NC4CCC4)n3)cc12	111	40.8	20	4400	95	766	1310	54.3	975	101	91.9	117	439
Cn1cc(C2=Nc3cc(NC(=O)C(N)C4CCCCC4)cc4c3C2=CNNC4=O)cn1 (configuration not stated)	442	134	238		215	2370	1960	1000	3520	652	259	505	492
COc1cc2c(NC3CCN(C(C)C)CC3)nc(C3CCCCC3)nc2cc1OCCCN1CCCC1 [UNC0638]	2570	2540	1600	2290	528	3070	3360	2120	3450	2290	2780	1660	3050
C=CC(=O)Nc1cc2c(Nc3ccc(F)c(Cl)c3)ncnc2cc1OCCCN1CCOCC1 [Canertinib]	1990	2670	2980	333	1100	710	1290	1080	402	1290	3700	1180	1970
CCN(CC)C(=S)SSC(=S)N(CC)CC [Disulfiram]	987	2300	40300	309	16200	224	320	194	323	256	1590	30100	25700
Cc1c2oc3c(C)ccc(C(=O)N[C@@H]4C(=O)N[C@H](C(C)C)C(=O)N5CCC[C@H]5C(=O)N(C)CC(=O)N(C)[C@@H](C(C)C)C(=O)O[C@@H]4C)c3nc-2c(C(=O)N[C@@H]2C(=O)N[C@H](C(C)C)C(=O)N3CCC[C@H]3C(=O)N(C)CC(=O)N(C)[C@@H](C(C)C)C(=O)O[C@@H]2C)c(N)c1=O [Dactinomycin]	0.55	2.49	0.27	4.39	4.77	5.98	12.7	1.43	13.4	0.68	12.2	24.7	0.98
CN(c1ncccc1CNc1nc(Nc2ccc3c(c2)CC(=O)N3)ncc1C(F)(F)F)S(C)(=O)=O	1310	1090	2870	4770	1930	3440	3740	2000	2320	1540	2960	3040	1530
O=C1NC(=O)/C(=C/c2ccc3nccc(-c4ccncc4)c3c2)S1	810	681	1100	116	846	1250	1650	543	749	644		1200	529
CN1CCN(c2cc(C(=O)Nc3ccc4c(c3)-c3c(c(C(N)=O)nn3-c3ccc(F)cc3)CC4)c(Cl)cn2)CC1 [PHA 408]	2440	2990	1620	2140	940	2100	2780	1350	2590	1620	2970	2090	1920
Cc1[nH]c2ccccc2c1CCNCc1ccc(/C=C/C(=O)NO)cc1 [Panobinostat]	17.4	16.3	14.3	5.89	5.94	7.38	13.5	12.5	12.9	8.13	29.9	13.4	21.2
O=C(/C=C/c1cccnc1)NCCCCC1CCN(C(=O)c2ccccc2)CC1 [Daporinad]	0.77	3.01	0.75	0.29	3.88	0.63	0.87	1.27	0.52	2.57	3.61	6.07	6.27
COCC1(CO)C(=O)C2CCN1CC2 (configuration not stated) [APR-246]				277		393	442		566				
CCn1c(-c2nonc2N)nc2c(C#CC(C)(C)O)ncc(OC[C@H]3CCCNC3)c21				1730		2190	1870	269	2160				
COC(=O)C[C@](O)(CCCC(C)(C)O)C(=O)O[C@@H]1C(OC)=C[C@]23CCCN2CCc2cc4c(cc2[C@H]13)OCO4 [Omacetaxine]	30.7	35.2	6.73	1.15	6.32	5.02	10.6	7.54	6.62	29.8	33.6	25.7	17.5
